Source: patent US6525001B1, “Substituted pyrimidine and pyridine herbicides” (Mid-American Commercialization Corporation, priority 1997, dated 2003)

Key:
Type in all cases: in vivo
Parameters in all cases: key: 0 is no effect; 10 is complete control
[1] = system: bedstraw (Galium aparine); test: Test B pre-/postemergence; conditions: for Bedstraw plant response rating: Preemergence
Summary of the method: (§1)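 Compounds in a surfactant-containing, non-phytotoxic solvent blend are applied to freshly planted seed (preemergence) and, concurrently, to seedlings of 2 to 18 cm at 1–4 leaves (postemergence). Plants stay in the greenhouse twelve to sixteen days and are then scored visually from 0 (no effect) to 10 (complete control).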

[2] = system: blackgrass (Alopecurus myosuroides); test: Test B pre-/postemergence; conditions: for Blackgrass plant response rating: Preemergence
Summary of the method: as §1

[3] = system: broadleaf signalgrass (Brachiaria decumbens); test: Test B pre-/postemergence; conditions: for B. signalgrass plant response rating: Preemergence
Summary of the method: as §1

[4] = system: cocklebur (Xanthium strumarium); test: Test B pre-/postemergence; conditions: for Cocklebur plant response rating: Preemergence
Summary of the method: as §1

corn (Zea mays) = test: Test B pre-/postemergence; conditions: for Corn plant response rating: Preemergence
Summary of the method: as §1

[5] = system: crabgrass (Digitaria sanguinalis); test: Test B pre-/postemergence; conditions: for Crabgrass plant response rating: Preemergence
Summary of the method: as §1

[6] = system: giant foxtail (Setaria faberii); test: Test B pre-/postemergence
Summary of the method: as §1

[7] = system: momingglory (Ipomoea hederacea); test: Test B pre-/postemergence
Summary of the method: as §1

[8] = system: pigweed (Amaranthus retroflexus); test: Test B pre-/postemergence
Summary of the method: as §1

[9] = system: purple nutsedge (Cyperus rotundus); test: Test B pre-/postemergence
Summary of the method: as §1

rape (Brassica napus) = test: Test B pre-/postemergence
Summary of the method: as §1

soybean (Glycine max) = test: Test B pre-/postemergence
Summary of the method: as §1

[10] = system: sugar beet (Beta vulgaris); test: Test B pre-/postemergence
Summary of the method: as §1

[11] = system: velvetleaf (Abutilon theophrasti); test: Test B pre-/postemergence
Summary of the method: as §1

[12] = system: wheat (Triticum aestivum); test: Test B pre-/postemergence
Summary of the method: as §1

wild oat (Avena fatua) = test: Test B pre-/postemergence
Summary of the method: as §1

[13] = system: bamyardgrass (Echinochloa crus-galli); test: Test B flood test
Summary of the method: (§2)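 Read-out is a visual response score from 0 (no effect) to 10 (complete control), assigned by comparison with untreated controls. Treatment was applied at the 2-leaf stage, and plants stayed in the greenhouse for twelve to sixteen days before scoring.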

[14] = system: duck salad (Heteranthera limosa); test: Test B flood test
Summary of the method: as §2

rice (Oryza sativa) = test: Test B flood test
Summary of the method: as §2

[15] = system: smallflower flatsedge (Cyperus difformis); test: Test B flood test
Summary of the method: as §2

[16] = Rate 250 g/ha, Postemergence (so in the source)
[17] = Rate 62 g/ha, Postemergence (flood test)
[18] = Rate 125 g/ha, Postemergence, flood test
[19] = Rate 250 g/ha, Postemergence (flood test species)
[20] = Rate 125 g/ha, Postemergence section (flood test species)

SMILES: Cc1cnc(-c2cccc(C(F)(F)F)c2)nc1Cc1cccc(C#N)c1 [Compound 39]
- Plant response rating, Bedstraw ([1]; Rate 62 g/ha, Postemergence): 3
- Bedstraw plant response rating ([1]; Rate 62 g/ha): 0
- Plant response rating, Bedstraw ([1]; Rate 125 g/ha, Postemergence): 3
- Bedstraw plant response rating ([1]; Rate 125 g/ha): 0
- Plant response rating, Bedstraw ([1]; Rate 250 g/ha, Postemergence): 4
- Plant response rating, Bedstraw [1, 16]: 0
- Plant response rating, Blackgrass ([2]; Rate 62 g/ha, Postemergence): 1
- Blackgrass plant response rating ([2]; Rate 62 g/ha): 0
- Plant response rating, Blackgrass ([2]; Rate 125 g/ha, Postemergence): 1
- Blackgrass plant response rating ([2]; Rate 125 g/ha): 0
- Plant response rating, Blackgrass ([2]; Rate 250 g/ha, Postemergence): 1
- Plant response rating, Blackgrass [2, 16]: 0
- Plant response rating, B. signalgrass ([3]; Rate 62 g/ha, Postemergence): 1
- B. signalgrass plant response rating ([3]; Rate 62 g/ha): 0
- Plant response rating, B. signalgrass ([3]; Rate 125 g/ha, Postemergence): 1
- B. signalgrass plant response rating ([3]; Rate 125 g/ha): 0
- Plant response rating, B. signalgrass ([3]; Rate 250 g/ha, Postemergence): 1
- Plant response rating, B. signalgrass ([3]; Rate 250 g/ha, Postemergence as printed in head r139 (second section for compounds 26-50)): 0
- Plant response rating, Cocklebur ([4]; Rate 62 g/ha, Postemergence): 2
- Cocklebur plant response rating ([4]; Rate 62 g/ha): 0
- Plant response rating, Cocklebur ([4]; Rate 125 g/ha, Postemergence): 2
- Cocklebur plant response rating ([4]; Rate 125 g/ha): 0
- Plant response rating, Cocklebur ([4]; Rate 250 g/ha, Postemergence): 5
- Plant response rating, Cocklebur [4, 16]: 0
- Plant response rating, Corn (corn (Zea mays); Rate 62 g/ha, Postemergence): 1
- Corn plant response rating (corn (Zea mays); Rate 62 g/ha): 0
- Plant response rating, Corn (corn (Zea mays); Rate 125 g/ha, Postemergence): 1
- Corn plant response rating (corn (Zea mays); Rate 125 g/ha): 0
- Plant response rating, Corn (corn (Zea mays); Rate 250 g/ha, Postemergence): 1
- Plant response rating, Corn (corn (Zea mays); [16]): 0
- Plant response rating, Crabgrass ([5]; Rate 62 g/ha, Postemergence): 0
- Crabgrass plant response rating ([5]; Rate 62 g/ha): 0
- Plant response rating, Crabgrass ([5]; Rate 125 g/ha, Postemergence): 0
- Crabgrass plant response rating ([5]; Rate 125 g/ha): 0
- Plant response rating, Crabgrass ([5]; Rate 250 g/ha, Postemergence): 1
- Plant response rating, Crabgrass [5, 16]: 0
- Plant response rating, Giant foxtail ([6]; Rate 62 g/ha, Postemergence): 0
- Giant foxtail plant response rating ([6]; Rate 62 g/ha, Preemergence): 0
- Giant foxtail plant response rating ([6]; Rate 125 g/ha, Postemergence): 1
- Giant foxtail plant response rating ([6]; Rate 125 g/ha, Preemergence): 0
- Plant response rating, Giant foxtail ([6]; Rate 250 g/ha, Postemergence): 1
- Plant response rating, Giant foxtail [6, 16]: 0
- Plant response rating, Morningglory ([7]; Rate 62 g/ha, Postemergence): 1
- Morningglory plant response rating ([7]; Rate 62 g/ha, Preemergence): 0
- Morningglory plant response rating ([7]; Rate 125 g/ha, Postemergence): 1
- Morningglory plant response rating ([7]; Rate 125 g/ha, Preemergence): 0
- Plant response rating, Morningglory ([7]; Rate 250 g/ha, Postemergence): 1
- Plant response rating, Morningglory [7, 16]: 0
- Plant response rating, Redroot pigweed ([8]; Rate 62 g/ha, Postemergence): 2
- Redroot pigweed plant response rating ([8]; Rate 62 g/ha, Preemergence): 0
- Redroot pigweed plant response rating ([8]; Rate 125 g/ha, Postemergence): 2
- Redroot pigweed plant response rating ([8]; Rate 125 g/ha, Preemergence): 0
- Plant response rating, Redroot pigweed ([8]; Rate 250 g/ha, Postemergence): 3
- Plant response rating, Redroot pigweed [8, 16]: 0
- Plant response rating, Nutsedge ([9]; Rate 62 g/ha, Postemergence): 0
- Nutsedge plant response rating ([9]; Rate 62 g/ha, Preemergence): 0
- Nutsedge plant response rating ([9]; Rate 125 g/ha, Postemergence): 0
- Nutsedge plant response rating ([9]; Rate 125 g/ha, Preemergence): 0
- Plant response rating, Nutsedge ([9]; Rate 250 g/ha, Postemergence): 0
- Plant response rating, Nutsedge [9, 16]: 0
- Plant response rating, Rape (rape (Brassica napus); Rate 62 g/ha, Postemergence): 1
- Rape plant response rating (rape (Brassica napus); Rate 62 g/ha, Preemergence): 0
- Rape plant response rating (rape (Brassica napus); Rate 125 g/ha, Postemergence): 1
- Rape plant response rating (rape (Brassica napus); Rate 125 g/ha, Preemergence): 0
- Plant response rating, Rape (rape (Brassica napus); Rate 250 g/ha, Postemergence): 4
- Plant response rating, Rape (rape (Brassica napus); [16]): 0
- Plant response rating, Soybean (soybean (Glycine max); Rate 62 g/ha, Postemergence): 1
- Soybean plant response rating (soybean (Glycine max); Rate 62 g/ha, Preemergence): 0
- Soybean plant response rating (soybean (Glycine max); Rate 125 g/ha, Postemergence): 1
- Plant response rating, Soybean (soybean (Glycine max); Rate 125 g/ha, Preemergence): 0
- Plant response rating, Soybean (soybean (Glycine max); Rate 250 g/ha, Postemergence): 2
- Plant response rating, Soybean (soybean (Glycine max); [16]): 0
- Plant response rating, Sugarbeets ([10]; Rate 62 g/ha, Postemergence): 7
- Sugarbeets plant response rating ([10]; Rate 62 g/ha, Preemergence): 0
- Sugarbeets plant response rating ([10]; Rate 125 g/ha, Postemergence): 9
- Plant response rating, Sugarbeets ([10]; Rate 125 g/ha, Preemergence): 0
- Plant response rating, Sugarbeets ([10]; Rate 250 g/ha, Postemergence): 10
- Plant response rating, Sugarbeets [10, 16]: 0
- Plant response rating, Velvetleaf ([11]; Rate 62 g/ha, Postemergence): 0
- Velvetleaf plant response rating ([11]; Rate 62 g/ha, Preemergence): 0
- Velvetleaf plant response rating ([11]; Rate 125 g/ha, Postemergence): 1
- Plant response rating, Velvetleaf ([11]; Rate 125 g/ha, Preemergence): 0
- Plant response rating, Velvetleaf ([11]; Rate 250 g/ha, Postemergence): 1
- Plant response rating, Velvetleaf [11, 16]: 0
- Wheat plant response rating ([12]; Rate 62 g/ha, Postemergence): 0
- Wheat plant response rating ([12]; Rate 62 g/ha, Preemergence): 0
- Wheat plant response rating ([12]; Rate 125 g/ha, Postemergence): 1
- Plant response rating, Wheat ([12]; Rate 125 g/ha, Preemergence): 0
- Plant response rating, Wheat ([12]; Rate 250 g/ha, Postemergence): 1
- Plant response rating, Wheat [12, 16]: 0
- Wild oats plant response rating (wild oat (Avena fatua); Rate 62 g/ha, Postemergence): 1
- Wild oats plant response rating (wild oat (Avena fatua); Rate 62 g/ha, Preemergence): 0
- Wild oats plant response rating (wild oat (Avena fatua); Rate 125 g/ha, Postemergence): 1
- Plant response rating, Wild oats (wild oat (Avena fatua); Rate 125 g/ha, Preemergence): 0
- Plant response rating, Wild oats (wild oat (Avena fatua); Rate 250 g/ha, Postemergence): 1
- Plant response rating, Wild oats (wild oat (Avena fatua); [16]): 0
- Plant response rating, Barnyardgrass [13, 17]: 0
- Plant response rating, Barnyardgrass [13, 18]: 0
- Plant response rating, Barnyardgrass [13, 19]: 0
- Plant response rating, Ducksalad [14, 17]: 0
- Plant response rating, Ducksalad [14, 18]: 0
- Plant response rating, Ducksalad [14, 19]: 0
- Plant response rating, Rice (rice (Oryza sativa); [17]): 0
- Rice plant response rating (rice (Oryza sativa); [20]): 0
- Plant response rating, Rice (rice (Oryza sativa); [19]): 0
- Plant response rating, S. Flatsedge [15, 17]: 0
- S. Flatsedge plant response rating [15, 20]: 2
- Plant response rating, S. Flatsedge [15, 19]: 2
